{"source": "patent US6773627B2", "about": "“Cubic liquid crystalline compositions and methods for their preparation” (Children's Hospital Research Foundation, priority 2000, dated 2004)", "assay": "Determination of hydrotrope utility (polarized light microscopy and rheology of compound/water/monoolein compositions)", "format": "physicochemical", "details": "for Formation of cubic phase in equilibrium with liquid water: system of compound, monoolein and water", "source_text": "Whether a compound is suitable to use as ingredient (A) can be determined by one skilled in the art without undue experimentation. The determination can be made by preparing a composition comprising the compound to be tested for use as the hydrotrope, the selected amphiphile, and the selected solvent and allowing the composition to equilibrate, for example, by the method described below in Reference Example 1. If the composition forms a cubic phase or cubic phase in combination with another phase, then the hydrotrope is suitable to use in this invention. If the composition forms a cubic phase or cubic phase in combination with an isotropic liquid, then the hydrotrope is preferred.\nPolarized light microscopy (PLM) can be used to determine whether the composition formed cubic phase. PLM can be carried out on a polarized light microscope or constructed light box, as described by Laughlin, R. G., J. Colloid Interface Sci., 55, 239-242 (1976). Polarized light microscope textures define the phase/colloidal state of sample. Lamellar and hexagonal phases give birefringence (see Hecht, E., Optics, 2nd ed., Addison-Wesley Publishing Co., Reading, Mass., pp. 282-289 (1984)) and distinct textures such as Maltese Crosses (see Rosevear, F. B., J. Am. Oil Chemists Soc., 31, 628-638 (1954)). This is a consequence of the anisotropic phase structure of these particular phases, and their orientation relative to polarization of the light. However, L1, L2, L3, and cubic phases show no birefringence and appear dark in the microscope. Birefringence is a function of sample thickness, so sometimes it is difficult to see with a light microscope. Instead, the bulk sample can be placed in the aforementioned light box to secure a very thick sample.\nCubic phases are very viscous while the other phases are (i.e., L1, L2, and L3) are less viscous, like water. Therefore, lack of birefringence in combination with bulk solid-like rheological properties indicates the presence of cubic phase.\nA compound for use as a hydrotrope is dissolved in water in amounts to form a hydrotrope solution. The solution is added to monoolein (DIMODAN® MO90K) to yield a composition. The composition is left to equilibrate overnight at a temperature of 25 to 30° C.\nPLM can be carried out on a polarized light microscope or constructed light box, as described by Laughlin, R. G., J. Colloid Interface Sci., 55, 239-242 (1976). Rheological properties of the composition are also observed.\nVarious compounds are evaluated according to Reference Example 1. The compounds, the compositions prepared, and the results are in Table E1, below. FIG. 4 is a ternary diagram 400 showing the data points in Example 3. FIG. 5 is a ternary diagram 500 for 1,2-hexanediol 516, monoolein 517, and water 518. […] FIG. 6 is a ternary diagram 600 for 1,2-hexanediol 613, monoolein 614, and water 615. […] FIG. 7 is a ternary diagram 700 for ethanol 713, monoolein 714, and water 715.", "key": {"[1]": {"details": "compound 10, water 80, amphiphile (monoolein) 10 (κ)"}, "[2]": {"details": "system with monoolein and water"}}, "note": "Entries after “also recorded” stand apart in the source; their conditions may differ.", "data": [{"smiles": "CC(C)O", "note": "[Example 2-propanol, 2-propanol]", "values": [{"measurement": "Phase(s) Formed", "setting": "[1]", "value": "does not form cubic phase; also recorded: Turbid solution and L1"}, {"measurement": "Suitability as hydrotrope", "setting": "[2]", "value": "not preferred to use as a hydrotrope"}]}, {"smiles": "CCN(CC)CCOC(=O)c1ccc(N)cc1.Cl", "note": "[procaine hydrogen chloride, reference compound]", "values": [{"measurement": "Phase(s) Formed", "setting": "[1]", "value": "cubic and L1"}, {"measurement": "Suitability as hydrotrope", "setting": "[2]", "value": "effective as hydrotropes"}]}, {"smiles": "CCCCC(O)CO", "note": "(stereo not shown) [1,2-hexanediol]", "values": [{"measurement": "Phase(s) Formed", "setting": "FIG. 5 point 501, compound 10, water 81, amphiphile (monoolein) 9 (κ)", "value": "liquid water and L1"}, {"measurement": "Phase(s) Formed", "setting": "FIG. 5 point 502, compound 10, water 71, amphiphile (monoolein) 19 (κ)", "value": "L1 and lamellar"}, {"measurement": "Phase(s) Formed", "setting": "FIG. 5 point 503, compound 10, water 64, amphiphile (monoolein) 26 (κ)", "value": "L1 and lamellar"}, {"measurement": "Phase(s) Formed", "setting": "FIG. 5 point 504, compound 12, water 53, amphiphile (monoolein) 35 (κ)", "value": "L1 and lamellar"}, {"measurement": "Phase(s) Formed", "setting": "FIG. 5 point 505, compound 10, water 45, amphiphile (monoolein) 45 (κ)", "value": "L1 and lamellar"}, {"measurement": "Phase(s) Formed", "setting": "FIG. 5 point 510, compound 20, water 40, amphiphile (monoolein) 40 (κ)", "value": "L1 and lamellar"}, {"measurement": "Phase(s) Formed", "setting": "FIG. 6 point 601, compound 6, water 56, amphiphile (monoolein) 38 (κ)", "value": "cubic and lamellar"}, {"measurement": "Phase(s) Formed", "setting": "FIG. 6 point 602, compound 4, water 58, amphiphile (monoolein) 38 (κ)", "value": "cubic and lamellar"}, {"measurement": "Phase(s) Formed", "setting": "FIG. 6 point 603, compound 2, water 59, amphiphile (monoolein) 39 (κ)", "value": "cubic and lamellar"}, {"measurement": "Phase(s) Formed", "setting": "FIG. 6 point 604, compound 6, water 38, amphiphile (monoolein) 56 (κ)", "value": "cubic and lamellar"}, {"measurement": "Phase(s) Formed", "setting": "FIG. 6 point 605, compound 4, water 39, amphiphile (monoolein) 57 (κ)", "value": "cubic and lamellar"}, {"measurement": "Phase(s) Formed", "setting": "FIG. 6 point 606, compound 2, water 39, amphiphile (monoolein) 59 (κ)", "value": "cubic and lamellar"}, {"measurement": "Phase(s) Formed", "setting": "FIG. 6 point 607, compound 6, water 28, amphiphile (monoolein) 66 (κ)", "value": "cubic and lamellar"}, {"measurement": "Phase(s) Formed", "setting": "FIG. 6 point 608, compound 2, water 29, amphiphile (monoolein) 69 (κ)", "value": "cubic and lamellar"}, {"measurement": "Phase(s) Formed", "setting": "FIG. 6 point 609, compound 16, water 13, amphiphile (monoolein) 71 (κ)", "value": "lamellar"}, {"measurement": "Phase(s) Formed", "setting": "FIG. 6 point 610, compound 10, water 14, amphiphile (monoolein) 76 (κ)", "value": "lamellar"}, {"measurement": "Phase(s) Formed", "setting": "FIG. 6 point 611, compound 5, water 14, amphiphile (monoolein) 81 (κ)", "value": "lamellar"}, {"measurement": "Phase(s) Formed", "setting": "FIG. 6 point 612, compound 5, water 12, amphiphile (monoolein) 83 (κ)", "value": "lamellar"}, {"measurement": "Formation of cubic phase in equilibrium with liquid water", "value": "does not form cubic phase in equilibrium with liquid water"}, {"measurement": "Suitability as hydrotrope", "setting": "[2]", "value": "suitable to use as a hydrotrope"}]}, {"smiles": "CCO", "note": "[ethanol]", "values": [{"measurement": "Phase(s) Formed", "setting": "FIG. 4 point 401, compound 20, water 48, amphiphile (monoolein) 32 (κ)", "value": "L1 and lamellar"}, {"measurement": "Phase(s) Formed", "setting": "FIG. 4 point 404, compound 9, water 55, amphiphile (monoolein) 36 (κ)", "value": "cubic and lamellar"}, {"measurement": "Phase(s) Formed", "setting": "FIG. 4 point 405, compound 6, water 56, amphiphile (monoolein) 38 (κ)", "value": "cubic and lamellar"}, {"measurement": "Phase(s) Formed", "setting": "FIG. 7 point 701, compound 11, water 88, amphiphile (monoolein) 1 (κ)", "value": "cubic & isotropic liquid"}, {"measurement": "Phase(s) Formed", "setting": "FIG. 7 point 702, compound 10, water 70, amphiphile (monoolein) 20 (κ)", "value": "cubic & isotropic liquid"}, {"measurement": "Phase(s) Formed", "setting": "FIG. 7 point 703, compound 10, water 59, amphiphile (monoolein) 31 (κ)", "value": "cubic & isotropic liquid"}, {"measurement": "Phase(s) Formed", "setting": "FIG. 7 point 704, compound 10, water 48, amphiphile (monoolein) 42 (κ)", "value": "cubic & isotropic liquid"}, {"measurement": "Phase(s) Formed", "setting": "FIG. 7 point 706, compound 20, water 55, amphiphile (monoolein) 25 (κ)", "value": "L1 and lamellar"}, {"measurement": "Phase(s) Formed", "setting": "FIG. 7 point 707, compound 19, water 49, amphiphile (monoolein) 32 (κ)", "value": "L1 and lamellar"}, {"measurement": "Phase(s) Formed", "setting": "FIG. 7 point 708, compound 20, water 42, amphiphile (monoolein) 39 (κ)", "value": "lamellar"}, {"measurement": "Phase(s) Formed", "setting": "FIG. 7 point 709, compound 29, water 60, amphiphile (monoolein) 11 (κ)", "value": "L1 and lamellar"}, {"measurement": "Phase(s) Formed", "setting": "FIG. 7 point 710, compound 28, water 52, amphiphile (monoolein) 20 (κ)", "value": "L1 and lamellar"}, {"measurement": "Phase(s) Formed", "setting": "FIG. 7 point 711, compound 30, water 40, amphiphile (monoolein) 30 (κ)", "value": "lamellar"}, {"measurement": "Phase(s) Formed", "setting": "FIG. 7 point 712, compound 30, water 29, amphiphile (monoolein) 41 (κ)", "value": "lamellar"}, {"measurement": "Formation of cubic phase in equilibrium with liquid water", "value": "can be formed"}, {"measurement": "Suitability as hydrotrope", "setting": "[2]", "value": "preferred hydrotrope"}, {"measurement": "Amount of compound at which it can be used as a hydrotrope", "setting": "system with monoolein and water, % of the system", "value": "less than or equal to 10%"}]}, {"smiles": "OCCCCO", "note": "[1,4-butanediol]", "values": [{"measurement": "Phase(s) Formed", "setting": "[1]", "value": "cubic and L1"}, {"measurement": "Suitability as hydrotrope", "setting": "[2]", "value": "effective as hydrotropes"}]}]}
